One assay has as its target T1, IDH2 R140Q (Homo sapiens, UniProt P48735, R140Q).
T1 sequence (P48735 40-452 R140Q): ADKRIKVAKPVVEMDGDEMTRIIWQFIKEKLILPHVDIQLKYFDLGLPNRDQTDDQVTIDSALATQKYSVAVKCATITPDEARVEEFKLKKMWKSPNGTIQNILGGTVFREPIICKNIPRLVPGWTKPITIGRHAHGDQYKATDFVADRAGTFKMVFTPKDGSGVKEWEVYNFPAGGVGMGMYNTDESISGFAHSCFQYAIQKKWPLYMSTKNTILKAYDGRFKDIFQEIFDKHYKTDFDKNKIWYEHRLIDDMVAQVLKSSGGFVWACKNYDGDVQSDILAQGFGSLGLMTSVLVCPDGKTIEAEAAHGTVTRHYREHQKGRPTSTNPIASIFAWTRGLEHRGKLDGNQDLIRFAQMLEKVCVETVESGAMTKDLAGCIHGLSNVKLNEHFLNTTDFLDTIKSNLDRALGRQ
Put plainly: IDH2 R140Q enzymatic assay (cofactor depletion, similar format). Format: biochemical. To be noted: for IC50: read-out: Enz R140Q. As for the experimental part:
[The source words this procedure for another variant and says it was used here with some conditions changed.] Compounds are assayed for IDH2 R172K inhibitory activity through a cofactor depletion assay. […] The reaction is terminated by the addition of a second enzyme, diaphorase, and a corresponding substrate, resazurin. Diaphorase reduces resazurin to the highly fluorescent resorufin with the concomitant oxidation of NADPH to NADP, both halting the IDH2 reaction by depleting the available cofactor pool and facilitating quantitation of the amount of cofactor remaining after a specific time period through quantitative production of an easily detected fluorophore.
The test compound is then incubated for one hour at room temperature with the enzyme; before starting the IDH2 reaction with the addition of 10 μl of substrate mix containing 50 μM NADPH and 6.3 mM α-KG in the buffer described above. After a further one hour of incubation at room temperature, the reaction is halted and the remaining NADPH measured through conversion of resazurin to resorufin by the addition of 25 μl Stop Mix (36 μg/ml diaphorase enzyme and 60 μM resazurin; in buffer).

Assay [1] concerns U87MG pLVX-IDH2 R140Q-neo cells. The assay can be described thus: U87MG pLVX-IDH2 R140Q-neo cell based assay, 2-HG in media by LC-MS at 48 hours. The settings on record: Homo sapiens, U-87 MG. As for the experimental part:
U87MG pLVX-IDH2 R140Q-neo cells are grown in T125 flasks in DMEM containing 10% FBS, 1× penicillin/streptomycin and 500 μg/mL G418. They are harvested by trypsin and seeded into 96 well white bottom plates at a density of 5000 cell/well in 100 μl/well in DMEM with 10% FBS. No cells are plated in columns 1 and 12. Cells are incubated overnight at 37° C. in 5% CO2. The next day compounds are made up at 2× concentration and 100 ul are added to each cell well. The final concentration of DMSO is 0.2% and the DMSO control wells are plated in row G. The plates are then placed in the incubator for 48 hours. At 48 hours, 100 ul of media is removed from each well and analyzed by LC-MS for 2-HG concentrations. The cell plate is placed back in the incubator for another 24 hours. At 72 hours post compound addition, 10 mL/plate of Promega Cell Titer Glo reagent is thawed and mixed. The cell plate is removed from the incubator and allowed to equilibrate to room temperature. Then 100 ul of reagent is added to each well of media. The cell plate is then placed on an orbital shaker for 10 minutes and then allowed to sit at room temperature for 20 minutes. The plate is then read for luminescence with an integration time of 500 ms to determine compound effects on growth inhibition.

With `CC(C)Nc1nc(Nc2ccccc2)nc(-c2ccc(C#N)cc2)n1` [Compound 108], on IDH2 R140Q, the IC50 lay within 100 to 1000 nM. Consider `CN(C)C(=O)Nc1nc(Nc2ccccc2)nc(-c2ccccc2)n1` [Compound 182, 1,1-dimethyl-3-(4-phenyl-6-(phenylamino)-1,3,5-triazin-2-yl)urea], for which the IC50 on IDH2 R140Q was in the range of 100 to 1000 nM. Regarding `CCNC(=O)Nc1nc(Nc2ccccc2)nc(-c2ccccc2)n1` [Compound 207, 1-ethyl-3-(4-phenyl-6-(phenylamino)-1,3,5-triazin-2-yl)urea], the IC50 at IDH2 R140Q lay in the range of 100 to 1000 nM.

In the case of `c1ccc(-c2nc(NCC3CCCO3)nc(Nc3ccncc3)n2)cc1` (stereo not shown) [Compound 222, 6-phenyl-N^2-(pyridin-4-yl)-N^4-((tetrahydrofuran-2-yl)methyl)-1,3,5-triazine-2,4-diamine], at IDH2 R140Q, the IC50 fell in the range of 100 to 1000 nM.

As for `c1ccc(-c2nc(NCC3CNCCO3)nc(Nc3ccncc3)n2)cc1` (stereo not shown) [Compound 234, N^2-(morpholin-2-ylmethyl)-6-phenyl-N^4-(pyridin-4-yl)-1,3,5-triazine-2,4-diamine], the “Enz R140Q” value at IDH2 R140Q is “No Fit”.

Consider `CC1(Nc2nc(Nc3ccncc3)nc(-c3ccccc3)n2)COC1` [Compound 251, N^2-(3-methyloxetan-3-yl)-6-phenyl-N^4-(pyridin-4-yl)-1,3,5-triazine-2,4-diamine], for which the IC50 at IDH2 R140Q fell in the range of 100 to 1000 nM. Consider `OC1CCC(Nc2nc(Nc3ccncc3)nc(-c3ccccc3)n2)CC1` (stereo not shown) [Compound 256, 4-(4-phenyl-6-(pyridin-4-ylamino)-1,3,5-triazin-2-ylamino)cyclohexanol], for which the IC50 on IDH2 R140Q fell in the range of 1000 to 10000 nM. Still for that read-out and setting: next, `c1ccc(-c2nc(Nc3ccncc3)nc(NC3CCOCC3)n2)cc1` [Compound 258, 6-phenyl-N^2-(pyridin-4-yl)-N^4-(tetrahydro-2H-pyran-4-yl)-1,3,5-triazine-2,4-diamine]: 1000 to 10000 nM; `c1ccc(-c2nc(NCC3CCO3)nc(Nc3ccncc3)n2)cc1` (stereo not shown) [Compound 264, N^2-(oxetan-2-ylmethyl)-6-phenyl-N^4-(pyridin-4-yl)-1,3,5-triazine-2,4-diamine]: 1000 to 10000 nM. As to `CC(C)(O)CNc1nc(Nc2ccncc2)nc(-c2ccccc2)n1` [Compound 265, 2-methyl-1-(4-phenyl-6-(pyridin-4-ylamino)-1,3,5-triazin-2-ylamino)propan-2-ol], the IC50 was in the range of 100 to 1000 nM on IDH2 R140Q and 1000 to 10000 nM in assay [1]. Consider `CC(O)CNc1nc(Nc2ccncc2)nc(-c2ccccc2)n1` (stereo not shown) [Compound 271, 1-(4-phenyl-6-(pyridin-4-ylamino)-1,3,5-triazin-2-ylamino)propan-2-ol], for which, at IDH2 R140Q, the “Enz R140Q” value is on record as “No Fit”.

For the molecule `COCC(C)Nc1nc(Nc2ccncc2)nc(-c2ccccc2)n1` (stereo not shown) [Compound 272, N^2-(1-methoxypropan-2-yl)-6-phenyl-N^4-(pyridin-4-yl)-1,3,5-triazine-2,4-diamine], the IC50 (at IDH2 R140Q; in assay [1]) was 100 to 1000 nM throughout. Consider `c1ccc(-c2nc(Nc3ccncc3)nc(NC3CCCOC3)n2)cc1` (stereo not shown) [Compound 273, 6-phenyl-N^2-(pyridin-4-yl)-N^4-(tetrahydro-2H-pyran-3-yl)-1,3,5-triazine-2,4-diamine], for which the IC50 on IDH2 R140Q is more than 10000 nM. In the case of `COC(C)CNc1nc(Nc2ccncc2)nc(-c2ccccc2)n1` (stereo not shown) [Compound 274, N^2-(2-methoxypropyl)-6-phenyl-N^4-(pyridin-4-yl)-1,3,5-triazine-2,4-diamine], the IC50 on IDH2 R140Q is more than 10000 nM. Take `COCCCNc1nc(Nc2ccncc2)nc(-c2ccccc2)n1` [Compound 275, N^2-(3-methoxypropyl)-6-phenyl-N^4-(pyridin-4-yl)-1,3,5-triazine-2,4-diamine]: the IC50 (on IDH2 R140Q; in assay [1]) was 100 to 1000 nM in each case. For the molecule `O=C1CC(Nc2nc(Nc3ccncc3)nc(-c3ccccc3)n2)C1` [Compound 276, 3-(4-phenyl-6-(pyridin-4-ylamino)-1,3,5-triazin-2-ylamino)cyclobutanone], the IC50 at IDH2 R140Q fell in the range of 100 to 1000 nM. As for `CC[S+]([O-])c1cccc(Nc2nc(NC(C)C)nc(-c3ccccc3)n2)c1` (stereo not shown) [Compound 277, N^2-(3-(ethylsulfinyl)phenyl)-N^4-isopropyl-6-phenyl-1,3,5-triazine-2,4-diamine], the IC50 on IDH2 R140Q is less than 100 nM; in assay [1], 100 to 1000 nM.

For the molecule `CC(CO)Nc1nc(Nc2ccncc2)nc(-c2ccccc2)n1` (stereo not shown) [Compound 278, 2-(4-phenyl-6-(pyridin-4-ylamino)-1,3,5-triazin-2-ylamino)propan-1-ol], the “Enz R140Q” value on IDH2 R140Q is on record as “No Fit”. Take `CC(C)C(CO)Nc1nc(Nc2ccncc2)nc(-c2ccccc2)n1` (stereo not shown) [Compound 279, 3-methyl-2-(4-phenyl-6-(pyridin-4-ylamino)-1,3,5-triazin-2-ylamino)butan-1-ol]: the IC50 on IDH2 R140Q is more than 10000 nM.

As for `c1ccc(-c2nc(Nc3ccncc3)nc(NC3CCCCC3)n2)cc1` [Compound 280, N^2-cyclohexyl-6-phenyl-N^4-(pyridin-4-yl)-1,3,5-triazine-2,4-diamine], the IC50 on IDH2 R140Q is more than 10000 nM. As to `Cc1ccc(Nc2nc(NC(C)C)nc(-c3ccccc3)n2)cn1` [Compound 281, N^2-isopropyl-N^4-(6-methylpyridin-3-yl)-6-phenyl-1,3,5-triazine-2,4-diamine], the IC50 on IDH2 R140Q is less than 100 nM; in assay [1], 100 to 1000 nM.

In the case of `OC1CCCCC1Nc1nc(Nc2ccncc2)nc(-c2ccccc2)n1` (stereo not shown) [Compound 282, 2-(4-phenyl-6-(pyridin-4-ylamino)-1,3,5-triazin-2-ylamino)cyclohexanol], at IDH2 R140Q, the “Enz R140Q” value is given as “No Fit”. For `O[C@H]1CC[C@@H](Nc2nc(Nc3ccncc3)nc(-c3ccccc3)n2)C1` [Compound 283, (1S,3R)-3-(4-phenyl-6-(pyridin-4-ylamino)-1,3,5-triazin-2-ylamino)cyclopentanol], the “Enz R140Q” value at IDH2 R140Q is “No Fit”.

Take `N#CC1(Nc2nc(Nc3ccncc3)nc(-c3ccccc3)n2)CC1` [Compound 285, 1-(4-phenyl-6-(pyridin-4-ylamino)-1,3,5-triazin-2-ylamino)cyclopropanecarbonitrile]: at IDH2 R140Q, the IC50 fell in the range of 1000 to 10000 nM. `CC(C)(C)C(CO)Nc1nc(Nc2ccncc2)nc(-c2ccccc2)n1` (stereo not shown) [Compound 286, 3,3-dimethyl-2-(4-phenyl-6-(pyridin-4-ylamino)-1,3,5-triazin-2-ylamino)butan-1-ol]: the IC50 at IDH2 R140Q was more than 10000 nM. `c1ccc(-c2nc(Nc3ccncc3)nc(NC3CCCC3)n2)cc1` [Compound 287, N^2-cyclopentyl-6-phenyl-N^4-(pyridin-4-yl)-1,3,5-triazine-2,4-diamine]: the IC50 on IDH2 R140Q fell in the range of 100 to 1000 nM. Take `O=C(Nc1nc(Nc2ccccc2)nc(-c2ccccc2)n1)c1ccn[nH]1` [Compound 347, N-(4-phenyl-6-(phenylamino)-1,3,5-triazin-2-yl)-1H-pyrazole-5-carboxamide]: the IC50 on IDH2 R140Q lay within 100 to 1000 nM.

Turning to `O=C(CO)Nc1nc(Nc2ccccc2)nc(-c2ccccc2)n1` [Compound 348, 2-hydroxy-N-(4-phenyl-6-(phenylamino)-1,3,5-triazin-2-yl)acetamide], the IC50 at IDH2 R140Q is more than 10000 nM. `CC#Cc1cccc(-c2nc(Nc3cccc(S(C)(=O)=O)c3)nc(NC(C)C)n2)n1` [Compound 365, N^2-isopropyl-N^4-(3-(methylsulfonyl)phenyl)-6-(6-(prop-1-ynyl)pyridin-2-yl)-1,3,5-triazine-2,4-diamine]: the IC50 on IDH2 R140Q lay in the range of 1000 to 10000 nM. Consider `O=C(Nc1nc(Nc2ccccc2)nc(-c2ccccc2)n1)C1(O)CC1` [Compound 412, 1-hydroxy-N-(4-phenyl-6-(phenylamino)-1,3,5-triazin-2-yl)cyclopropanecarboxamide], for which, at IDH2 R140Q, the IC50 lay within 1000 to 10000 nM. Take `O=C1CCC(C(=O)Nc2nc(Nc3ccccc3)nc(-c3ccccc3)n2)N1` (stereo not shown) [Compound 413, 5-oxo-N-(4-phenyl-6-(phenylamino)-1,3,5-triazin-2-yl)pyrrolidine-2-carboxamide]: the IC50 at IDH2 R140Q is more than 10000 nM.

With `O=C(Nc1nc(Nc2ccccc2)nc(-c2ccccc2)n1)C1CCOC1` (stereo not shown) [Compound 415, N-(4-phenyl-6-(phenylamino)-1,3,5-triazin-2-yl)tetrahydrofuran-3-carboxamide], the IC50 at IDH2 R140Q is more than 10000 nM.
